Our source for the IC50 and melting point values is publication PMC8820799, “Angiogenesis and anti-leukaemia activity of novel indole derivatives as potent colchicine binding site inhibitors” (Journal of Enzyme Inhibition and Medicinal Chemistry, 2022).

A word on the IC50: it is the point on the concentration scale where inhibition reaches its midpoint. Usually melting point stands for the temperature, or range, at which the solid turns liquid.

For one data set, the system named is HuT 78. Nature of the data set: CCK-8 assay, HuT 78. Format: cell-based. As to conditions: Homo sapiens, HuT78; leukaemia, ALL; CCK-8, 72 h. As to the method: (§1) Cells were seeded in 96-well plates at a density of 8 × 10^3 per well and exposed to different concentrations of compounds for 72 h. Subsequently, 10 µL CCK8 solution was added to each well and co-incubated for another 3–4 h at 37 °C. The absorbance was determined at 450 nm. Data was calculated with GraphPad Prism5 software.[32]
In general terms: Tetrazolium assays rely on reduction of a dye to a coloured formazan, in cell work by metabolically active cells.

The next data set concerns CCRF-CEM. Nature of the data set: CCK-8 assay, CCRF-CEM. As to conditions: Homo sapiens, leukaemia, ALL, CCK-8, 72 h. In kind it is cell-based. As to the method:
as §1

Another data set concerns HL60. Nature of the data set: CCK-8 assay, HL60. As to conditions: Homo sapiens, HL-60; leukaemia, APL; CCK-8, 72 h. In kind it is cell-based. As to the method: as §1
In the next data set the test system is THP-1. Nature of the data set: CCK-8 assay, THP-1. Format: cell-based. As to conditions: Homo sapiens, leukaemia, AML, CCK-8, 72 h. How it is done:
as §1

A further data set relates to K562. Nature of the data set: CCK-8 assay, K562. As to conditions: Homo sapiens, leukaemia, CML, CCK-8, 72 h. In kind it is cell-based. How it is done: as §1
For a further data set, the system named is Jurkat. Nature of the data set: CCK-8 assay, Jurkat. Format: cell-based. As to conditions: Homo sapiens, leukaemia, ALL, CCK-8, 72 h. As to the method:
as §1

The subject of the next data set is MV4-11. Nature of the data set: CCK-8 assay, MV4-11. Format: cell-based. As to conditions: Homo sapiens, leukaemia, AML, CCK-8, 72 h. How it is done: as §1
Data set [1] has as its target T1, Tubulin isolated from porcine brain tissue (Sus scrofa, UniProt P02550+P02554).
T1 construct: purchased Cytoskeleton (Denver, CO), via Beyotime, China; host or cells: porcine brain tissue
Nature of the data set: Tubulin polymerisation assay. Format: biochemical. As to conditions: triplicate, mean ± SD; read-out: Tubulin (tubulin inhibitory polymerisation IC50). As to the method:
Tubulin polymerisation was determined with the tubulin polymerisation assay kit (Cytoskeleton, Denver, CO which was purchased from Cytoskeleton, Beyotime, China. Tubulin isolated from porcine brain tissue was used in this commercial kit.) It is based on the principal that light is scattered by microtubules to an extent that is proportional to the concentration of the microtubule polymer. Compounds that interact with tubulin will alter the polymerisation of tubulin, and this can be detected using a spectrophotometer. Tubulin polymerisation dynamics was monitored through measuring the change of absorbance at 340 nm every 2 min for 30 min at 37 °C on a spectrophotometer.

The test system of data set [2] is transgenic zebrafish (FLK-1:EGFP). Nature of the data set: Zebrafish angiogenesis assay (ISVs). In kind it is in vivo. As to conditions: Danio rerio, transgenic zebrafish; triplicate, mean ± SD; read-out: Zebrafish (antiangiogenic activity IC50). As to the method:
The transgenic flk: enhanced GFP zebrafish embryos were generated by pair-wise mating, collected and sorted into the 6-well plate (n = 30 per well) with 1 ml of aquaculture water (0.2 g/L of Instant Ocean Salt in distilled water) and raised at 28 °C. Then the embryos staged at 12 h post fertilisation (hpf) were treated with the indicated concentrations of compounds which were added into embryo water. About 30 embryos were screened for each concentration gradient. At 30hpf, the treated embryos were anaesthetised with 0.02% tricaine in embryo water and photographed. The numbers of ISVs were recorded under confocal microscopy. Results were obtained from three independent determinations and presented as mean ± SD.[38]

Structures are written as SMILES.

T1 sequence (P02554 whole entry): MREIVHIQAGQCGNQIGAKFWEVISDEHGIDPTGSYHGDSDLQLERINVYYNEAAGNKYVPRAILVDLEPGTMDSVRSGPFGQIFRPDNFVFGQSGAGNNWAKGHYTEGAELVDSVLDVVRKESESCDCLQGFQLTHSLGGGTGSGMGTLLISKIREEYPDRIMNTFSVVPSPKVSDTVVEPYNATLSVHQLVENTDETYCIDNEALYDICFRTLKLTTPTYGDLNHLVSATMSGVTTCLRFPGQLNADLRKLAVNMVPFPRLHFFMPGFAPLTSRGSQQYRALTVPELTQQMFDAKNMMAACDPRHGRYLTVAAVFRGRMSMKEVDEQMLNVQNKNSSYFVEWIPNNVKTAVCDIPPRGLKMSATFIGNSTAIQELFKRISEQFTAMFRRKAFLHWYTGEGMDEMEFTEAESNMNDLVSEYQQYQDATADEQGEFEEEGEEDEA
T1 sequence (P02550 whole entry): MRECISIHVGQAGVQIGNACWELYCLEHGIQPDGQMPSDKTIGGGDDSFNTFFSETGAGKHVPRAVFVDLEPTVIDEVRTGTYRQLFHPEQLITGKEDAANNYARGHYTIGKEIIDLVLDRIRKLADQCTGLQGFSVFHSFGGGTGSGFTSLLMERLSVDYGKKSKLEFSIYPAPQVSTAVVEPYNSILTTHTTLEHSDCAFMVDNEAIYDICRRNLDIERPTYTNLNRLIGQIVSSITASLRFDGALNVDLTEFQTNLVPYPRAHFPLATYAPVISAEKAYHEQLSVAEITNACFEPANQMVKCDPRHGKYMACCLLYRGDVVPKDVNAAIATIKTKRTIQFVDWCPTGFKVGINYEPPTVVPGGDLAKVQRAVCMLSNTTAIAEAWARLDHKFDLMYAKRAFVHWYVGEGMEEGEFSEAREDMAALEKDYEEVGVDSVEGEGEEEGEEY

Take `COc1ccc(/C=C\c2cc(OC)c(OC)c(OC)c2)cc1O` [CA-4, Combretastatin A-4, reference compound]: the IC50 with HuT 78 came to 0.24 ± 0.04 µM; in the data set on CCRF-CEM it was 0.71 ± 0.11 µM; in the data set with HL60, 0.26 ± 0.05 µM; in the data set with THP-1 it was 0.08 ± 0.01 µM; in the data set on K562 it was 0.27 ± 0.01 µM; in the data set on Jurkat, 0.19 ± 0.02 µM. Further, half-maximal inhibition in the data set with MV4-11 (IC50) required 0.12 ± 0.03 µM.
`CCCn1cc(/C=C/C(=O)c2cccc(OC)c2)c2ccccc21` [Compound 27c, (E)-1–(3-Methoxyphenyl)-3–(1-propyl-1H-indol-3-yl)prop-2-en-1-one] displayed a melting point of 161 to 162 °C. In addition, the IC50 in data set [1] amounted to 52.1 ± 2.9 µM. For the same compound, the IC50 in data set [2] is 18.6 ± 3.2 µM.
On the same counts, the results for `O=C(/C=C/c1cn(S(=O)(=O)c2ccccc2)c2ccccc12)c1ccc(C(F)(F)F)cc1` [Compound 28e, (E)-3–(1-(phenylsulfonyl)-1H-indol-3-yl)-1–(4-(trifluoromethyl)phenyl)prop-2-en-1-one] are 167 to 170 °C, 10.4 ± 0.7 µM and 5.8 ± 2.1 µM.
Regarding `COc1cc(C(=O)/C=C/c2cn(C)c3ccccc23)cc(OC)c1OC` [Compound 29a, (E)-3–(1-Methyl-1H-indol-3-yl)-1–(3,4,5-trimethoxyphenyl)prop-2-en-1-one], the melting point fell in the range of 160 to 162 °C. Moreover, the IC50 in data set [1] was determined as 49.9 ± 8.5 µM. Also, the IC50 in data set [2] worked out at 15.7 ± 3.2 µM.
`COc1cc(C(=O)/C=C/c2cn(Cc3ccccc3)c3ccccc23)cc(OC)c1OC` [Compound 29d, (E)-3–(1-Benzyl-1H-indol-3-yl)-1–(3,4,5-trimethoxyphenyl)prop-2-en-1-one] displayed a melting point of 160 to 163 °C. For the same compound, the IC50 in [1] came out at 24.8 ± 2.1 µM. Further, the IC50 in [2] is 6.7 ± 0.5 µM.
In the case of `COc1cc(C(=O)/C=C/c2ccnc3ccccc23)cc(OC)c1OC` [DYT-1, (E)-3-(quinolin-4-yl)-1–(3,4,5-trimethoxyphenyl)prop-2-en-1-one], the IC50 in data set [1] worked out at 25.6 µM; in the data set with K562, 6.2 µM; in the data set with Jurkat, 7.9 µM; in data set [2], 38.4 µM.
